Measurements taken from patent publication US9309511B2, “Functional assay for identification of loss-of-function mutations in genes” (priority 2007, dated 2016).

Columns and labels:
BRCA2^Δex11/Y3308Y cells = test: Cell proliferation assay upon drug treatment, SyVaL clone Y3308Y; type: cell-based, human; settings: 6 days
Method: (§1) Alternately, exon 27 was targeted in the hemizygous cells using a construct whose right homology arm included intact exon 27 and individual sequence variants. Homologous integration of the construct, the presence of desired sequence variants and allelic phase of the construct were determined by allele-specific PCR and sequencing. An analogous vector design was used by Hurley et al. to introduce an ATR mutation into alleles of a human cell (Hurley, P. J. et al., Oncogene. 2007. 26, 2535-42, incorporated herein by reference).
(§2) In each well of 96-well plates, 1000 cells were plated, allowed to adhere and treated with various drugs. The drugs were obtained from Sigma (St. Louis, Mo.) except for SJG-136 which was generously provided by Ipsen Ltd. and the National Cancer Institute, NIH. The cells were washed after 6 days and lysed in 100 uL of water. Fluorescence was measured after addition of 0.5% Picogreen® (Molecular Probes, Eugene, Oreg.) using a fluorometer (Fusion®, Perkin Elmer, Shelton, Conn.). Three independent experiments were performed per drug.

[1] = system: BRCA2^Δex11/Δex11 cells (DLD1); test: Cell proliferation assay upon drug treatment, BRCA2 knock-out cells; type: cell-based, human; settings: for FoldΔ: ratio of the IC50 of cells having the hemizygous wild-type allele to the IC50 of cells having the mutated allele: BRCA2^Δex11/Δex11 cells vs control cells, cell proliferation; for FoldΔ: ratio of the IC50 of cells having the hemizygous wild-type allele to the IC50 of cells having the mutated allele / Sensitivity of BRCA2-deficient cells compared to parental and heterozygous cells (in words): 6 days; for Sensitivity of BRCA2-deficient cells compared to parental and heterozygous cells (in words): cell proliferation following drug treatment
Method: (§3) DLD1 cells were obtained from ATCC, cultured in conventional media supplemented with 10% fetal calf serum, L-glutamine and penicillin/streptomycin.
as §2

[2] = system: BRCA2^wt/Δex11 cells (DLD1); test: Cell proliferation assay upon drug treatment, hemizygous clone; type: cell-based, human; settings: 6 days
Method: as §3, §2

BRCA2^Δex11/P3292L cells = test: Cell proliferation assay upon drug treatment, SyVaL clone P3292L; type: cell-based, human; settings: 6 days
Method: as §1, §2

BRCA2^Δex11/Y3308X cells = test: Cell proliferation assay upon drug treatment, SyVaL clone Y3308X; type: cell-based, human; settings: 6 days
Method: as §1, §2

BRCA2^Δex11/S3291E cells = test: Cell proliferation assay upon drug treatment, SyVaL clone S3291E; type: cell-based, human; settings: 6 days
Method: as §1, §2

[3] = system: BRCA2-deficient mouse small intestines; settings: Walker et al., J Biol Chem. 2004; cited from earlier work
[4] = system: fibroblasts from a Fanconi D1 patient; settings: reported by Treszezamsky, Cancer Res. 2007; cited from earlier work
[5] = system: BRCA2-deficient mouse thymocytes; settings: Flores et al., Mol Carcinog 2002; cited from earlier work
BRCA2^Δex11/S3291A cells = test: Cell proliferation assay upon drug treatment, SyVaL clone S3291A; type: cell-based, human; settings: 6 days
Method: as §1, §2

BRCA2^Δex11/P3280H cells = test: Cell proliferation assay upon drug treatment, SyVaL clone P3280H; type: cell-based, human; settings: 6 days
Method: as §1, §2

BRCA2-deficient cells = test: Cell-cycle analysis by flow cytometry; type: cell-based, human; settings: 48 h after MMC treatment
Method: Cells were treated with MMC for 48 hours, processed as described previously (Vindelov, L. L., et al., Cytometry 1983. 3: 323-7, incorporated herein by reference) and analyzed by flow cytometry.

[6] = system: ATR^s/s DLD1 colorectal cancer cells; test: Proliferation assay for MMC sensitivity in ATR knock-in cells; type: cell-based, human; settings: 6 d after treatment
Method: For siRNA experiments, the cells were plated in 6-well plates at 500,000 cells/well at 24 h after siRNA transfection. Separate aliquots of each sample were counted at six different time points one to four days after transfection, using two separate aliquots for each time point. Dead cells were separately determined by trypan-blue exclusion and were negligible in number in all samples (<2%). For comparisons between parental cells and FANCD2^+/−. clones, 500,000 cells/well were plated and counted at six time points between 0 and 48 h. Two independent experiments were performed. For MMC sensitivity studies, Picogreen® (Invitrogen) proliferation assays were performed in quadruplicate as described in Gallmeier et al., 2006.

BRCA2^Δex11/Δex11 cells = test: Chromosome aberration assay; type: cell-based, human; settings: BRCA2^Δex11/Δex11 vs BRCA2^wt/Δex11, MMC at equitoxic doses, 24 h
Method: Cells were treated with equitoxic doses of MMC (80 nM for BRCA2^wt/Δex11 and 6 nM for BRCA2^Δex11/Δex11) for 24 h. For each sample, 50 metaphases were analyzed using standard techniques by a core facility.

BRCA2 proficient cells = test: Rad51 focus-formation (immunofluorescence); type: cell-based, human; settings: MMC 2.4 μg/ml, 24 h incubation
Method: Cells were treated with MMC (2.4 μg/ml) or gamma irradiation and fixed in PBS/2% paraformaldehyde after 24 h incubation. Following permeabilization in PBS/0.5% Triton X-100 and blocking for 30 min in PBS/1% bovine serum albumin/0.15% glycine, the cells were incubated with an anti-Rad51 antibody (1:200, Calbiochem, San Diego, Calif.) for 2 h. Cells were then washed and incubated with a […] (1:200, Alexa® 488, Molecular Probes, Eugene, Oreg.) for 1 h. After washing, slides were mounted and analyzed by a fluorescent microscope (Zeiss Axiover 135, Maple Grove, Minn.) and Metamorph 4.6 software (Universtal Imaging, Downington, Pa.). Pictures were acquired, keeping exposure time and software settings constant for all samples.
Baseline or induced Rad51 focus formation was considered “negative” when less than 5% or 20%, respectively, of cells had more than 5 nuclear foci and “positive” when more than 5% or 30%, respectively, of cells had more than 5 nuclear foci. Intermediate phenotypes were not observed.

Compound: COc1cc([C@@H]2c3cc4c(cc3[C@@H](O[C@@H]3O[C@@H]5CO[C@@H](C)O[C@H]5[C@H](O)[C@H]3O)[C@H]3COC(=O)[C@H]23)OCO4)cc(OC)c1O [Etoposide, etoposide]
- FoldΔ: ratio of the IC50 of cells having the hemizygous wild-type allele to the IC50 of cells having the mutated allele (BRCA2^Δex11/Y3308Y cells): NoΔ
- FoldΔ: ratio of the IC50 of cells having the hemizygous wild-type allele to the IC50 of cells having the mutated allele (BRCA2^Δex11/Y3308Y cells; listed as etoposide): did not differ from control cells
- Etoposide hypersensitivity in combination with other anticancer agents ([1]; BRCA2-deficient cells): additive to, but not synergistic with
- FoldΔ: ratio of the IC50 of cells having the hemizygous wild-type allele to the IC50 of cells having the mutated allele [1]: 10-foldΔ
- FoldΔ: ratio of the IC50 of cells having the hemizygous wild-type allele to the IC50 of cells having the mutated allele ([1]; listed as etoposide): 10 fold
- FoldΔ: ratio of the IC50 of cells having the hemizygous wild-type allele to the IC50 of cells having the mutated allele [2]: NoΔ
- FoldΔ: ratio of the IC50 of cells having the hemizygous wild-type allele to the IC50 of cells having the mutated allele (BRCA2^Δex11/P3292L cells): NoΔ
- FoldΔ: ratio of the IC50 of cells having the hemizygous wild-type allele to the IC50 of cells having the mutated allele (BRCA2^Δex11/P3292L cells; listed as etoposide): not significantly more sensitive
- FoldΔ: ratio of the IC50 of cells having the hemizygous wild-type allele to the IC50 of cells having the mutated allele (BRCA2^Δex11/Y3308X cells): 10-foldΔ
- FoldΔ: ratio of the IC50 of cells having the hemizygous wild-type allele to the IC50 of cells having the mutated allele (BRCA2^Δex11/Y3308X cells; listed as etoposide): 10 fold
- FoldΔ: ratio of the IC50 of cells having the hemizygous wild-type allele to the IC50 of cells having the mutated allele (BRCA2^Δex11/S3291E cells): 3-foldΔ
- FoldΔ: ratio of the IC50 of cells having the hemizygous wild-type allele to the IC50 of cells having the mutated allele (BRCA2^Δex11/S3291E cells; listed as etoposide): 3 fold
- Etoposide sensitivity [3]: no increased etoposide sensitivity
- Difference in sensitivity of BRCA2 deficient cells to the drug [4]: 2.75 fold
- Etoposide sensitivity [5]: no increased etoposide sensitivity
- FoldΔ: ratio of the IC50 of cells having the hemizygous wild-type allele to the IC50 of cells having the mutated allele (BRCA2^Δex11/S3291A cells): NoΔ
- FoldΔ: ratio of the IC50 of cells having the hemizygous wild-type allele to the IC50 of cells having the mutated allele (BRCA2^Δex11/P3280H cells): NoΔ
- FoldΔ: ratio of the IC50 of cells having the hemizygous wild-type allele to the IC50 of cells having the mutated allele (BRCA2^Δex11/P3280H cells; listed as etoposide): not significantly more sensitive

Compound: CO[C@@]12[C@H](COC(N)=O)C3=C(C(=O)C(C)=C(N)C3=O)N1C[C@@H]1N[C@@H]12 [MMC, mitomycin C]
- Cell cycle effect (genotype-dependent toxicity) (BRCA2-deficient cells): profound G2/M arrest
- FoldΔ: ratio of the IC50 of cells having the hemizygous wild-type allele to the IC50 of cells having the mutated allele (BRCA2^Δex11/Y3308Y cells): did not differ from control cells and NoΔ
- FoldΔ: ratio of the IC50 of cells having the hemizygous wild-type allele to the IC50 of cells having the mutated allele [1]: 20-foldΔ
- Sensitivity of BRCA2-deficient cells compared to parental and heterozygous cells (in words) [1]: greatly increased sensitivity
- FoldΔ: ratio of the IC50 of cells having the hemizygous wild-type allele to the IC50 of cells having the mutated allele [2]: NoΔ
- FoldΔ: ratio of the IC50 of cells having the hemizygous wild-type allele to the IC50 of cells having the mutated allele ([2]; listed as mitomycin): absence of mitomycin hypersensitivity
- FoldΔ: ratio of the IC50 of cells having the hemizygous wild-type allele to the IC50 of cells having the mutated allele (BRCA2^Δex11/P3292L cells): not significantly more sensitive and NoΔ
- MMC sensitivity compared to control cells [6]: strikingly more sensitive
- Rates of chromosomal aberrations, including breaks and radials (BRCA2^Δex11/Δex11 cells): much higher rates of chromosomal aberrations
- FoldΔ: ratio of the IC50 of cells having the hemizygous wild-type allele to the IC50 of cells having the mutated allele (BRCA2^Δex11/S3291A cells): NoΔ
- FoldΔ: ratio of the IC50 of cells having the hemizygous wild-type allele to the IC50 of cells having the mutated allele (BRCA2^Δex11/P3280H cells): not significantly more sensitive and NoΔ
- Cells with induced Rad51 foci (more than 5 foci) (BRCA2 proficient cells): 60-80%

Compound: Cc1nc2c(O)cccc2c(=O)[nH]1 [NU1025]
- FoldΔ: ratio of the IC50 of cells having the hemizygous wild-type allele to the IC50 of cells having the mutated allele [1]: 20 fold

Compound: C=C1C[C@H]2C=Nc3cc(OCCCOc4cc5c(cc4OC)C(=O)N4CC(=C)C[C@H]4C=N5)c(OC)cc3C(=O)N2C1 [SJG]
- Sensitivity of BRCA2-deficient cells compared to parental and heterozygous cells (in words) [1]: greatly increased sensitivity

Compound: O=c1cc(-c2ccc(O)cc2)oc2cc(O)cc(O)c12 [apigenin]
- Sensitivity of BRCA2-deficient cells compared to parental and heterozygous cells (in words) [1]: No differences in sensitivities

Compound: CC[C@@]1(O)C(=O)OCc2c1cc1n(c2=O)Cc2cc3ccccc3nc2-1 [camptothecin]
- FoldΔ: ratio of the IC50 of cells having the hemizygous wild-type allele to the IC50 of cells having the mutated allele [1]: 6 fold

Compound: N.N.O=C([O-])C1(C(=O)[O-])CCC1.[Pt+2] [carboplatin]
- Sensitivity of BRCA2-deficient cells compared to parental and heterozygous cells (in words) [1]: greatly increased sensitivity

Compound: N.N.[Cl][Pt][Cl] [cisplatin]
- Sensitivity of BRCA2-deficient cells compared to parental and heterozygous cells (in words) [1]: greatly increased sensitivity

Compound: COc1cc(/C=C/C(=O)CC(=O)/C=C/c2ccc(O)c(OC)c2)ccc1O [curcumin]
- Sensitivity of BRCA2-deficient cells compared to parental and heterozygous cells (in words) [1]: No differences in sensitivities

Compound: COc1cccc2c1C(=O)c1c(O)c3c(c(O)c1C2=O)C[C@@](O)(C(=O)CO)C[C@@H]3O[C@H]1C[C@H](N)[C@H](O)[C@H](C)O1 [doxorubicin]
- FoldΔ: ratio of the IC50 of cells having the hemizygous wild-type allele to the IC50 of cells having the mutated allele [1]: 10 fold

Compound: Nc1ccn([C@@H]2O[C@H](CO)[C@@H](O)C2(F)F)c(=O)n1 [gemcitabine]
- Sensitivity of BRCA2-deficient cells compared to parental and heterozygous cells (in words) [1]: No differences in sensitivities

Compound: COc1ccc([C@@H]2CC(=O)c3c(O)cc(O[C@@H]4O[C@H](CO[C@@H]5O[C@@H](C)[C@H](O)[C@@H](O)[C@H]5O)[C@@H](O)[C@H](O)[C@H]4O)cc3O2)cc1O [hesperidin]
- Sensitivity of BRCA2-deficient cells compared to parental and heterozygous cells (in words) [1]: No differences in sensitivities

Compound: N[C@@H](Cc1ccc(N(CCCl)CCCl)cc1)C(=O)O [melphalan]
- Sensitivity of BRCA2-deficient cells compared to parental and heterozygous cells (in words) [1]: greatly increased sensitivity

Compound: C#C[C@]1(O)CC[C@H]2[C@@H]3CCC4=CC(=O)CC[C@@H]4[C@H]3CC[C@@]21C [norethindrone]
- Sensitivity of BRCA2-deficient cells compared to parental and heterozygous cells (in words) [1]: No differences in sensitivities

Compound: O=C1[O][Pt]2([NH][C@@H]3CCCC[C@H]3[NH]2)[O]C1=O [oxaliplatin]
- Sensitivity of BRCA2-deficient cells compared to parental and heterozygous cells (in words) [1]: greatly increased sensitivity

Compound: CC[C@]1(O)C[C@@H]2CN(CCc3c([nH]c4ccccc34)[C@@](C(=O)OC)(c3cc4c(cc3OC)N(C)[C@H]3[C@@](O)(C(=O)OC)[C@H](OC(C)=O)[C@]5(CC)C=CCN6CC[C@]43[C@@H]65)C2)C1 [vinblastine]
- Sensitivity of BRCA2-deficient cells compared to parental and heterozygous cells (in words) [1]: No differences in sensitivities
